Like-named read-outs stand apart in the source and are kept apart here.
Columns and labels:
[1] = tested on: histamine spasm of the isolated small intestine of the guinea pig; assay: Antihistamine effect, histamine spasm of isolated small intestine
[2] = tested on: carotid sinus relaxation reflex of the narcotized cat; assay: Inhibition of the carotid sinus reflex, narcotized cat; format: in vivo; conditions: Felis catus, iv; for ED30: 30% inhibition; for ED50: 50% inhibition
[3] = tested on: blood pressure of the narcotized cat; assay: Lowering of the blood pressure, narcotized cat; format: in vivo; conditions: Felis catus, iv; for ED30: 30% lowering; for ED50: 50% lowering
mouse [4] = assay: SD50, sedation symptoms, mouse; format: in vivo
Source text: b = Dose, at which at an average 50% of the mice show the following symptoms: inhibition of the spontaneous motility, sadation, muscle relaxation, loss of gripping and holding ability on a horizontal wire net.

mouse [5] = assay: Inhibition of the motility in the tread wheel, mouse; format: in vivo; conditions: for inhibition in vivo at 25 mg/kg: ip, 3 h, read-out: % Inhibition of the motility in the tread wheel by 25 mg/kg i.p.
mouse [6] = assay: Prolongation of sleep induced by hexobarbital, mouse; format: in vivo; conditions: ip, read-out: % prolongation of sleep induced by hexobarbital by 15 mg/kg i.p.
Method: d = Percent prolongation of the duration of sleep of mice, which were administered 75 mg/kg hexobarbital, compared with the sleep duration of controls.

mouse [7] = assay: PD50, rotating rod, mouse; format: in vivo; conditions: ip, read-out: PD50
Source text: The centrally inhibiting effect of the piperazinyl uracils of the invention in the mouse are apparent from Table IV. […] The selective action of the compounds of the invention on the central blood pressure mechanism can be used advantageously in human therapy in the treatment of hypertonic diseases.
a = Dose, at which an average of 50% of the mice fall from a rotating rod.

mouse [8] = assay: Analgesic effect, thermal stimulation of the tail of the mouse; format: in vivo; conditions: oral, 25% retardation, read-out: Retardation of the defense reaction upon thermal stimulation of the tail of the mouse by 25%
Source text: The analgesic effect was thereby determined as the delay in the reaction upon thermal stimulation of the tail of the mouse.

Hygroscopicity = format: physicochemical; conditions: solid product
[9] = tested on: blood pressure of the narcotized rat; assay: Lowering of the blood pressure, narcotized rat; format: in vivo; design: unit not given here; conditions: 30% lowering
[10] = tested on: blood pressure increasing effect of noradrenaline; assay: Inhibition of the pressor effect of noradrenaline, despinalized rat; format: in vivo; conditions: iv, 0.001 mg/kg i.v. noradrenaline, read-out: 50% inhibition of the press. effect after i.v. administration of noradrenaline with
[11] = tested on: blood pressure increasing effect of adrenaline; assay: Inhibition of the pressor effect of adrenaline, despinalized rat; format: in vivo; conditions: iv, 0.001 mg/kg i.v. adrenaline, read-out: 50% inhibition of the press. effect after i.v. administration of adrenaline with
in vivo = conditions: mouse
[12] = mouse, oral, dose at which 50% show inhibition of spontaneous motility, sedation, muscle relaxation, loss of gripping, read-out: SD50 (the source's name)
[13] = mouse, 25 mg/kg i.p., 5 mg/kg d-amphetamine-sulfate, 180 minutes
[14] = mouse, 15 mg/kg i.p., 75 mg/kg hexobarbital, vs controls
[15] = mouse, i.p., dose at which an average of 50% of the mice fall from a rotating rod

Q: With `COc1cccc(N2CCN(CCCNc3cc(=O)n(C)c(=O)n3C)CC2)c1` [Example 7, 1,3-Dimethyl-4-(γ-[4-(m-methoxyphenyl)-piperazinyl-(1)]-propylamino)-uracil] as the compound, how does the “50% inhibition of the histamine spasm of the isolated small intestine of the guinea pig” value [1] read?
A: Its value is 2e-08 g/mL.

Q: Which ED30 [2] does the source give for `COc1ccccc1N1CCN(CCCNc2c(Br)c(=O)n(C)c(=O)n2C)CC1` [Example 18, 1,3-Dimethyl-4-(γ-[4-(o-methoxyphenyl)-piperazinyl-(1)]-propylamino)-5-bromo-uracil-dihydrobomide] here?
A: Its ED30 is 0.13 mg/kg.

Q: And the ED50 [2]?
A: The ED50 was 1.1 mg/kg.

Q: And the ED30 [3]?
A: The ED30 was 0.15 mg/kg.

Q: And the ED50 [3]?
A: The ED50 was over 0.5 mg/kg.

Q: What does the source list for `CCCC(C)(COC(N)=O)COC(N)=O` [Meprobamate, reference compound]?
A: ED50 (mouse [4]; Mus musculus, po, read-out: SD50): 300 mg/kg; inhibition in vivo at 25 mg/kg (mouse [5]; Mus musculus): 28%; change in vivo at 15 mg/kg (mouse [6]; Mus musculus): 18%; ED50 (mouse [7]; Mus musculus): 95 mg/kg

Q: With `Cc1c(N(C)C)c(=O)n(-c2ccccc2)n1C` [Aminophenazone, reference compound] as the compound, how does the ED25 (mouse [8]) read?
A: The ED25 was 140 mg/kg.

Q: Which hygroscopicity (Hygroscopicity) does the source give for `COc1ccccc1N1CCN(CCCNc2c(N=O)c(=O)n(C)c(=O)n2C)CC1` [Example 19, 1,3-Dimethyl-4-(γ-[4-(o-methoxyphenyl)-piperazinyl-(1)]-propylamino)-5-nitroso-uracil] here?
A: Its hygroscopicity is “hygroscopic”.

Q: For `COc1ccccc1N1CCN(CCCNc2c(N)c(=O)n(C)c(=O)n2C)CC1` [Example 20, 1,3-Dimethyl-4-(γ-[4-(o-methoxyphenyl)-piperazinyl-(1)]-propylamino)-5-amino-uracil], which “lowering of the blood pressure by 30% by” value [9] is on record?
A: The value was 0.11.

Q: What about the ED50 (mouse [4]; [12]) of the same compound?
A: Its ED50 is 80 mg/kg.

Q: What about the inhibition in vivo at 25 mg/kg (mouse [5]; [13]) of the same compound?
A: The inhibition in vivo at 25 mg/kg was 42%.

Q: And the ED50 [10]?
A: Its ED50 is 1.6 mg/kg.

Q: What about the change in vivo at 15 mg/kg (mouse [6]; [14]) of the same compound?
A: The change in vivo at 15 mg/kg was 62%.

Q: And the ED50 (mouse [7]; [15])?
A: Its ED50 is 34 mg/kg.

Q: And the ED30 [2]?
A: The ED30 was 0.06 mg/kg.

Q: And the ED50 [2]?
A: The ED50 was 0.15 mg/kg.

Q: What about the ED50 [11] of the same compound?
A: The ED50 was 0.045 mg/kg.

Q: What about the ED30 [3] of the same compound?
A: Its ED30 is 0.05 mg/kg.

Q: What about the ED50 [3] of the same compound?
A: The ED50 was 0.15 mg/kg.

Q: And the LD50 (in vivo)?
A: The LD50 was 500 mg/kg.

Q: For `COc1ccccc1N1CCN(CCCNc2c(C)c(=O)n(C)c(=O)n2C)CC1` [Example 14, 1,3,5-Trimethyl-4-(γ-[4-(o-methoxyphenyl)-piperazinyl-(1)]-propylamino)-uracil], which “lowering of the blood pressure by 30% by” value [9] is on record?
A: Its value is 0.13.

Q: What about the ED50 (mouse [4]; [12]) of the same compound?
A: The ED50 was 90 mg/kg.

Q: What about the inhibition in vivo at 25 mg/kg (mouse [5]; [13]) of the same compound?
A: The inhibition in vivo at 25 mg/kg was 21%.

Q: What about the ED50 [10] of the same compound?
A: The ED50 was 1.2 mg/kg.

Q: And the change in vivo at 15 mg/kg (mouse [6]; [14])?
A: The change in vivo at 15 mg/kg was 152%.

Q: What about the ED50 (mouse [7]; [15]) of the same compound?
A: Its ED50 is 12 mg/kg.

Q: What about the ED50 [11] of the same compound?
A: The ED50 was 0.045 mg/kg.

Q: And the LD50 (in vivo)?
A: Its LD50 is 140 mg/kg.

Q: What does the source list for `COc1ccccc1N1CCN(C(C)CNc2cc(=O)n(C)c(=O)n2C)CC1` (stereo not drawn) [Example 17, 1,3-Dimethyl-4-(β-[4-(o-methoxyphenyl)-piperazinyl-(1)]-propylamino)-uracil]?
A: lowering of the blood pressure by 30% by [9]: 3.0; ED50 [10]: 2.3 mg/kg; ED50 [11]: 0.16 mg/kg; LD50 (in vivo): 220 mg/kg

Q: Which results are given for `Cn1c(NCCCN2CCN(c3ccccc3)CC2)cc(=O)n(C)c1=O` [Example 11, 1,3-Dimethyl-4-(γ-[4-phenyl-piperazinyl-(1)]-propylamino)-uracil]?
A: lowering of the blood pressure by 30% by [9]: 0.48; ED50 (mouse [4]; [12]): 70 mg/kg; % Inhibition of the motility in the tread wheel by 12 mg/kg i.p. (mouse [5]; mouse, 12 mg/kg i.p., 5 mg/kg d-amphetamine-sulfate, 180 minutes): 22%; ED50 [10]: > 2.5 mg/kg; change in vivo at 15 mg/kg (mouse [6]; [14]): 130%; ED50 (mouse [7]; [15]): 11 mg/kg; ED50 [11]: 1 mg/kg; LD50 (in vivo): 120 mg/kg

Q: Which “lowering of the blood pressure by 30% by” value [9] does the source give for `COc1ccc(OC)c(N2CCN(CCCNc3cc(=O)n(C)c(=O)n3C)CC2)c1` [Example 3, 1,3-Dimethyl-4-(γ-[4-(2,5-dimethoxyphenyl)-piperazinyl-(1)]-propylamino)-uracil] here?
A: The value was 1.4.

Q: What about the ED50 [11] of the same compound?
A: The ED50 was 2.1 mg/kg.

Q: What about the ED25 (mouse [8]) of the same compound?
A: The ED25 was 7 mg/kg.

Q: And the LD50 (in vivo)?
A: The LD50 was 430 mg/kg.

From patent publication US4067982A, “Aryl-substituted piperazinyl-alkylamino-uracils, -uracil ethers and -uracil thioethers as therapeutics” (priority 1976, dated 1978)
